Broadly, the IC50 is the concentration at which inhibition is half-maximal.

Read-outs that look alike come from different tables or passages of the source.

Experiment [1] concerns the target T1, MAGL (Mus musculus, UniProt O35678).
T1 construct: from tissue; host or cells: brain of wild-type C57Bl/6J mice
T1 sequence (O35678 1-303): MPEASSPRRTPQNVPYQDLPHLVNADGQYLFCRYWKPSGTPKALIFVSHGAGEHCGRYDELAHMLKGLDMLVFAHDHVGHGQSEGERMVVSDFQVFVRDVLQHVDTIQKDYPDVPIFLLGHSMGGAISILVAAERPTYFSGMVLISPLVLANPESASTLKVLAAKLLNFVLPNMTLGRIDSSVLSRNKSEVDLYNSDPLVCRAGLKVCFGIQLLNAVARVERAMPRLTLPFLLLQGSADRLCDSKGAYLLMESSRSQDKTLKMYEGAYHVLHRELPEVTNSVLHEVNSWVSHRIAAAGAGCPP
Description: Mouse brain proteomes from inhibitor treated mice (oral gavage, brain proteomes analyzed 4 h after administration). Format: in vivo, mouse (C57Bl/6J). The following applies: brain proteome 4 h after administration, read-out: % Inh 5 mg/kg MGLL (Mouse). As for the experimental part:
Compounds are tested to assess their MAGL and serine hydrolase activity using the following in vitro and in vivo assays.
Preparation of Mouse Brain Proteomes from Inhibitor Treated Mice.
Inhibitors were administered to wild-type C57Bl/6J by oral gavage in a vehicle of polyethylene glycol. Each animal was sacrificed 4 h following administration and brain proteomes were prepared and analyzed according to previously established methods (See Niphakis, M. J., et al. (2011) ACS Chem. Neurosci. and Long, J. Z., et al. Nat. Chem. Biol. 5:37-44).

Experiment [2] has as its target T2, ABHD6 (Mus musculus, UniProt Q8R2Y0).
T2 construct: Brain; from tissue; host or cells: mouse brain proteome
T2 sequence (Q8R2Y0 1-336): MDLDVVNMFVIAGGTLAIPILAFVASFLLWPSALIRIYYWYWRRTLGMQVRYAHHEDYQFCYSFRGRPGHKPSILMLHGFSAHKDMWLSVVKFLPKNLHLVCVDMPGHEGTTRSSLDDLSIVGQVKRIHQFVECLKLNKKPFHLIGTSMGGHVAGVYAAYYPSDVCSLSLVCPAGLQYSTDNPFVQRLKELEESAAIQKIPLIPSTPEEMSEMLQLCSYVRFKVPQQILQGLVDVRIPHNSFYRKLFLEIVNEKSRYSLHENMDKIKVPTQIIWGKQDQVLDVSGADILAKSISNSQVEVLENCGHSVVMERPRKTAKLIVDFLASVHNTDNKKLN
Description: In vitro competitive activity-based protein profiling, mouse brain proteome, ABHD6. The following applies: mouse. Type of experiment: biochemical. How it is done:
[Worded in the source for another target; this target is reported under the same test.] (§1) Proteomes (human prefrontal cortex or cell membrane fractions) (50 μL, 1.0 mg/mL total protein concentration) were preincubated with varying concentrations of inhibitors at 37° C. After 30 min, FP—Rh or HT-01 (1.0 μL, 50 μM in DMSO) was added and the mixture was incubated for another 30 min at room temperature. Reactions were quenched with SDS loading buffer (15 μL-4×) and run on SDS-PAGE.

In experiment [3] the target is T3, MGLL (Mus musculus, UniProt O35678).
T3 construct: Brain; from tissue; host or cells: mouse brain proteome
T3 sequence (O35678 1-303): T1 sequence (O35678 1-303)
Description: In vitro competitive activity-based protein profiling, mouse brain proteome. Format: biochemical. As for the experimental part:
[Worded in the source for another species; this species is reported under the same test.] as §1

Experiment [4] has as its target T4, MAGL (Homo sapiens, UniProt Q99685).
T4 construct: Proteomes (human prefrontal cortex or cell membrane fractions); from tissue
T4 sequence (Q99685 1-303): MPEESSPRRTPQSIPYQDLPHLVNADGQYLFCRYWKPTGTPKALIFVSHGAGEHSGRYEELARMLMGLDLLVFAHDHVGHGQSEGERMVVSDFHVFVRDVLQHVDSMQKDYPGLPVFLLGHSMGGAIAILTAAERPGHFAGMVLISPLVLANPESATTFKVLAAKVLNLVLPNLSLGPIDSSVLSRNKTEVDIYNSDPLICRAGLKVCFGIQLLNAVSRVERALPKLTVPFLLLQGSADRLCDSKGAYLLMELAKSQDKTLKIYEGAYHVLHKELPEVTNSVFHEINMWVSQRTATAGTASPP
The experiment is described as follows: In vitro competitive activity-based protein profiling (gel-based, FP-Rh or HT-01 probe). Type of experiment: biochemical. In short, it runs like this:
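Readout is SDS-PAGE of probe-labelled proteome after FP-Rh or HT-01 (1.0 μL, 50 μM stock) labelling for 30 min at room temperature. Beforehand, inhibitors at varying concentrations were preincubated 30 min at 37° C with human prefrontal cortex or cell membrane fractions at 1.0 mg/mL total protein.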

The mark [5] stands for this setting: PC3 proteome, read-out: IC50 MGLL PC3 (Human).
[6] abbreviates: PFC (prefrontal cortex) proteome.

As to `O=C(OC(C(F)(F)F)C(F)(F)F)N1CCC2(CCN(Cc3ccc(Cl)cc3N3CCC(F)CC3)CC2)C1` [Example 28, 1,1,1,3,3,3-Hexafluoropropan-2-yl 8-(4-chloro-2-(4-fluoropiperidin-1-yl)benzyl)-2,8-diazaspiro[4.5]decane-2-carboxylate], the inhibition at 5 mg/kg in experiment [1] was ≥ 75%. Moreover, the IC50 in experiment [2] is > 1000 nM; in experiment [3], < 100 nM.
The corresponding values for `CC(=O)N1CCC2(CC1)CCN(c1cc(Cl)ccc1CN1CCN(C(=O)OC(C(F)(F)F)C(F)(F)F)CC1)C2` [Example 29, 1,1,1,3,3,3-Hexafluoropropan-2-yl 4-(2-(8-acetyl-2,8-diazaspiro[4.5]decan-2-yl)-4-chlorobenzyl)piperazine-1-carboxylate] are ≥ 75%, > 1000 nM and < 100 nM.
The corresponding values for `CS(=O)(=O)N1CCC2(CCN(c3cc(Cl)ccc3CN3CCN(C(=O)OC(C(F)(F)F)C(F)(F)F)CC3)C2)CC1` [Example 30, 1,1,1,3,3,3-Hexafluoropropan-2-yl 4-(4-chloro-2-(8-(methylsulfonyl)-2,8-diazaspiro[4.5]decan-2-yl)benzyl)piperazine-1-carboxylate] are ≤ 25%, > 1000 nM and < 100 nM.
Consider `O=C(OC(C(F)(F)F)C(F)(F)F)N1CCC2(CCCN2Cc2cc(Cl)cc(C3(C(=O)O)CCCC3)c2)CC1` [Example 134, 1-{3-Chloro-5-[(8-{[(1,1,1,3,3,3-hexafluoropropan-2-yl)oxy]carbonyl}-1,8-diazaspiro[4.5]decan-1-yl)methyl]phenyl} cyclopentane-1-carboxylic acid], for which the inhibition at 5 mg/kg in experiment [1] was ≥ 75%. Also, the IC50 in experiment [4] (setting [5]) is < 100 nM. The “% Inh MGLL PFC (Human, μM)” value in experiment [4] (setting [6]) is “### (### is ≥ 75%)”.
For the compound `CN(Cc1ccc(C(F)(F)F)cc1CN1CCC(C(=O)O)CC1)C1(C)CCN(C(=O)OC(C(F)(F)F)C(F)(F)F)CC1` [Example 137, 1-(2-(((1-(((1,1,1,3,3,3-Hexafluoropropan-2-yl)oxy)carbonyl)-4-methylpiperidin-4-yl)(methyl)amino)methyl)-5-(trifluoromethyl)benzyl)piperidine-4-carboxylic acid], in experiment [1], the inhibition at 5 mg/kg was ≥ 75%. In addition, the half-maximal inhibitory concentration (IC50) in experiment [4] (setting [5]) is < 100 nM. Also, the “% Inh MGLL PFC (Human, μM)” value in experiment [4] (setting [6]) is recorded as “### (### is ≥ 75%)”.
As to `CN(Cc1cc(N2CCOC(C)(C(=O)O)C2)cc(C(F)(F)F)c1)C1(C)CCN(C(=O)OC(C(F)(F)F)C(F)(F)F)CC1` (centres unmarked) [Example 139], in experiment [1], the inhibition at 5 mg/kg was ≤ 25%. For the same compound, the half-maximal inhibitory concentration (IC50) is < 100 nM in experiment [4] (setting [5]) and < 100 nM in experiment [4] (PFC (prefrontal cortex) proteome, read-out: IC50 MGLL PFC (Human)).
For the compound `CN(Cc1ccccc1C1(C(=O)O)CCCC1)C1(C)CCN(C(=O)OC(C(F)(F)F)C(F)(F)F)CC1` [Example 141], in experiment [1], the inhibition at 5 mg/kg is ≥ 75%. For the same compound, the IC50 in experiment [4] (setting [5]) was < 100 nM. In addition, the “% Inh MGLL PFC (Human, μM)” value in experiment [4] (setting [6]) is on record as “### (### is ≥ 75%)”.
Taken in the same sequence, the figures for `CN(Cc1ccc(Cl)cc1C1(C(=O)O)CCCC1)C1(C)CCN(C(=O)OC(C(F)(F)F)C(F)(F)F)CC1` [Example 142, 1-(5-Chloro-2-{[(1-{[(1,1,1,3,3,3-hexafluoropropan-2-yl)oxy]carbonyl}-4-methylpiperidin-4-yl)(methyl)amino]methyl}phenyl) cyclopentane-1-carboxylic acid] were ≥ 75%, < 100 nM and “### (### is ≥ 75%)”.
Consider `CN(Cc1ccc(F)cc1C1(C(=O)O)CCCC1)C1(C)CCN(C(=O)OC(C(F)(F)F)C(F)(F)F)CC1` [Example 143, 1-(5-Fluoro-2-{[(1-{[(1,1,1,3,3,3-hexafluoropropan-2-yl)oxy]carbonyl}-4-methylpiperidin-4-yl)(methyl)amino]methyl}phenyl) cyclopentane-1-carboxylic acid], for which the inhibition at 5 mg/kg in experiment [1] was ≥ 75%. For the same compound, the half-maximal inhibitory concentration (IC50) in experiment [4] (setting [5]) was < 100 nM. Also, the “% Inh MGLL PFC (Human, μM)” value in experiment [4] (setting [6]) is given as “### (### is ≥ 75%)”.
Taken in the same sequence, the figures for `CC(C)(C#Cc1c(F)cccc1CN1CCCC12CCN(C(=O)OC(C(F)(F)F)C(F)(F)F)CC2)C(=O)O` [Example 147, 4-{2-Fluoro-6-[(8-{[(1,1,1,3,3,3-hexafluoropropan-2-yl)oxy]carbonyl}-1,8-diazaspiro[4.5]decan-1-yl)methyl]phenyl]-2,2-dimethylbut-3-ynoic acid] were ≥ 75%, < 100 nM and “### (### is ≥ 75%)”.
With `O=C(O)CN1CCC2(CCN(c3cc(C(F)(F)F)ccc3CN3CCCC34CCN(C(=O)OC(C(F)(F)F)C(F)(F)F)CC4)CC2)C1` [Example 153, 2-(8-(2-((8-(((1,1,1,3,3,3-Hexafluoropropan-2-yl)oxy)carbonyl)-1,8-diazaspiro[4.5]decan-1-yl)methyl)-5-(trifluoromethyl)phenyl)-2,8-diazaspiro[4.5]decan-2-yl)acetic acid], in experiment [1], the inhibition at 5 mg/kg was ≤ 25%. In experiment [4] (setting [5]), the IC50 is < 100 nM.
Taken in the same sequence, the figures for `O=C(O)CN1CCC2(CC1)CCN(c1cc(C(F)(F)F)ccc1CN1CCCC13CCN(C(=O)OC(C(F)(F)F)C(F)(F)F)CC3)C2` [Example 154, 2-(2-(2-((8-(((1,1,1,3,3,3-Hexafluoropropan-2-yl)oxy)carbonyl)-1,8-diazaspiro[4.5]decan-1-yl)methyl)-5-(trifluoromethvl)phenyl)-2,8-diazaspiro[4.5]decan-8-yl)acetic acid] were ≤ 25% and < 100 nM.
The corresponding values for `O=C(O)CN1CC2CN(c3cc(C(F)(F)F)ccc3CN3CCCC34CCN(C(=O)OC(C(F)(F)F)C(F)(F)F)CC4)CC2C1` (centres unmarked) [Example 155] are ≤ 25% and < 100 nM.
The corresponding values for `O=C(O)CN1CCC2(CC1)CN(c1cc(C(F)(F)F)ccc1CN1CCCC13CCN(C(=O)OC(C(F)(F)F)C(F)(F)F)CC3)C2` [Example 156, 2-(2-(2-((8-(((1,1,1,3,3,3-Hexafluoropropan-2-yl)oxy)carbonyl)-1,8-diazaspiro[4.5]decan-1-yl)methyl)-5-(trifluoromethyl)phenyl)-2,7-diazaspiro[3.5]nonan-7-yl)acetic acid] are ≤ 25% and < 100 nM.
As for `O=C(O)CN1CC2(CCN(c3cc(C(F)(F)F)ccc3CN3CCCC34CCN(C(=O)OC(C(F)(F)F)C(F)(F)F)CC4)CC2)C1` [Example 157, 2-(7-(2-((8-(((1,1,1,3,3,3-Hexafluoropropan-2-yl)oxy)carbonyl)-1,8-diazaspiro[4.5]decan-1-yl)methyl)-5-(trifluoromethyl)phenyl)-2,7-diazaspiro[3.5]nonan-2-yl)acetic acid], the inhibition at 5 mg/kg in experiment [1] was ≤ 25%. Besides, in experiment [4] (setting [5]), the 50% inhibitory concentration (IC50) is < 100 nM.
The corresponding values for `O=C(O)CN1CC2(CCN(c3cc(CN4CCCC45CCN(C(=O)OC(C(F)(F)F)C(F)(F)F)CC5)cc(C(F)(F)F)c3)CC2)C1` [Example 158, 2-(7-(3-((8-(((1,1,1,3,3,3-Hexafluoropropan-2-yl)oxy)carbonyl)-1,8-diazaspiro[4.5]decan-1-yl)methyl)-5-(trifluoromethyl)phenyl)-2,7-diazaspiro[3.5]nonan-2-yl)acetic acid] are ≤ 25% and < 100 nM.
For the compound `O=C(O)C1CCN(c2c(Cl)cccc2CN2CCC3(CC2)CCN(C(=O)OC(C(F)(F)F)C(F)(F)F)C3)CC1` [Example 218, 1-(2-Chloro-6-((2-(((1,1,1,3,3,3-hexafluoropropan-2-yl)oxy)carbonyl)-2,8-diazaspiro[4.5]decan-8-yl)methyl)phenyl) piperidine-4-carboxylic acid], the inhibition at 5 mg/kg in experiment [1] was ≥ 75%. The IC50 in experiment [4] (setting [5]) is < 100 nM.

Source of the values: patent US20210214375A1 (LUNDBECK LA JOLLA RESEARCH CENTER, INC., priority 2017, published 2021).
